Measurements: patent publication US9663451B2, “Forms of co-crystals of agomelatine and p toluenesulphonic acid, a process for their preparation and pharmaceutical compositions containing them” (LES LABORATOIRES SERVIER, priority 2013, dated 2017)

What was measured:
[1] = Solubility by HPLC (external standard method) compared with agomelatine of form II; type: physicochemical
Method: By means of an external standard method, the compounds of Examples 1 and 2 are tested by HPLC and compared with agomelatine of form II. The results are presented in Table 4 in the form of % increase in solubility relative to the solubility of agomelatine of form II: […]

[2] = Stability of samples in incubators, determined by HPLC; type: physicochemical; settings: 30 days

Compound | Solubility (increase versus agomelatine form II) in 0.1N HCl [1] | Solubility (increase versus agomelatine form II) in a buffer pH 6.8 [1] | Solubility (increase versus agomelatine form II) in water [1] | Stability ([2]; 70° C., closed bottle) | Stability ([2]; 25° C., 60% RH, open bottle) | Stability ([2]; 40° C., 75% RH, open bottle) | Stability ([2]; 50° C., closed bottle)
COc1ccc2cccc(CCNC(C)=O)c2c1.Cc1ccc(S(=O)(=O)O)cc1 [Compound of Example 2, Agomelatine/p-Toluenesulphonic Acid (1/1) Co-Crystal] | +45% | +60% | +35% | Stable | – | – | –
COc1ccc2cccc(CCNC(C)=O)c2c1.Cc1ccc(S(=O)(=O)O)cc1.O [Compound of Example 1, Agomelatine/p-Toluenesulphonic Acid (1/1) Monohydrate Co-Crystal] | +50% | +49% | +41% | Stable | Stable | Stable | Stable
